Assay results published in PMC5218480 (PLoS ONE, 2017).

System: MV-4-11 cells
Assay: Gene expression microarray analysis (Affymetrix PrimeView) and GSEA
Assay type: cell-based, human
Parameters: RFU PODN (11730768_x_at) / Fold change /veh PODN (11730768_x_at) / RFU LINC00158 (11744669_a_at) / Fold change /veh LINC00158 (11744669_a_at) / RFU DUSP10 (11751237_a_at) / Fold change /veh DUSP10 (11751237_a_at) / RFU ID3 (11757404_x_at) / Fold change /veh ID3 (11757404_x_at) / RFU PLEKHG5 (11737974_s_at) / Fold change /veh PLEKHG5 (11737974_s_at) / RFU LRRC4B (11730491_at) / Fold change /veh LRRC4B (11730491_at) / RFU GIMAP4 (11747438_a_at) / Fold change /veh GIMAP4 (11747438_a_at) / RFU KRT8 (11758183_x_at) / Fold change /veh KRT8 (11758183_x_at) / RFU CNN1 (11734310_a_at) / Fold change /veh CNN1 (11734310_a_at) / RFU VPS37D (11726825_at) / Fold change /veh VPS37D (11726825_at) / RFU C10orf10 (11716522_x_at) / Fold change /veh C10orf10 (11716522_x_at) / RFU KIR2DL2 /// KIR2DL4 /// KIR2DL5A /// KIR2DL5B /// KIR2DS1 /// KIR2DS2 /// KIR2DS3 /// KIR2DS4 /// KIR3DL3 /// KIR3DL3 /// KIR3DS1 (11738374_at) / Fold change /veh KIR2DL2 /// KIR2DL4 /// KIR2DL5A /// KIR2DL5B /// KIR2DS1 /// KIR2DS2 /// KIR2DS3 /// KIR2DS4 /// KIR3DL3 /// KIR3DL3 /// KIR3DS1 (11738374_at) / RFU C1QL1 (11718748_at) / Fold change /veh C1QL1 (11718748_at) / RFU TMPRSS4 (11747572_a_at) / Fold change /veh TMPRSS4 (11747572_a_at) / RFU HAMP (11756126_x_at) / Fold change /veh HAMP (11756126_x_at) / RFU RNFT2 (11725882_a_at) / Fold change /veh RNFT2 (11725882_a_at) / RFU NR4A2 (11747474_a_at) / Fold change /veh NR4A2 (11747474_a_at) / RFU ABCC12 (11746883_a_at) / Fold change /veh ABCC12 (11746883_a_at) / RFU TMEM136 (11760407_x_at) / Fold change /veh TMEM136 (11760407_x_at) / RFU CLDN22 /// WWC2 (11732394_at) / Fold change /veh CLDN22 /// WWC2 (11732394_at) / RFU HLA-DPB1 (11760878_x_at) / Fold change /veh HLA-DPB1 (11760878_x_at) / RFU SPINT1 (11716480_a_at) / Fold change /veh SPINT1 (11716480_a_at) / RFU GAP43 (11754022_s_at) / Fold change /veh GAP43 (11754022_s_at) / RFU A4GNT (11735810_at) / Fold change /veh A4GNT (11735810_at) / RFU PRB3 (11715151_x_at) / Fold change /veh PRB3 (11715151_x_at) / RFU TUBB4B (11761932_at) / Fold change /veh TUBB4B (11761932_at) / RFU CAPN14 (11732068_a_at) / Fold change /veh CAPN14 (11732068_a_at) / RFU TMCC2 (11721928_a_at) / Fold change /veh TMCC2 (11721928_a_at) / RFU IRGQ (11745062_a_at) / Fold change /veh IRGQ (11745062_a_at) / RFU FAM174B (11720279_a_at) / Fold change /veh FAM174B (11720279_a_at) / RFU TMPRSS4 (11748680_a_at) / Fold change /veh TMPRSS4 (11748680_a_at) / RFU FAM212B (11763350_a_at) / Fold change /veh FAM212B (11763350_a_at) / RFU PLEKHG5 (11743358_a_at) / Fold change /veh PLEKHG5 (11743358_a_at) / RFU ZSCAN30 (11745921_a_at) / Fold change /veh ZSCAN30 (11745921_a_at) / RFU CMKLR1 (11741424_a_at) / Fold change /veh CMKLR1 (11741424_a_at) / RFU LOC101060620 /// MAPK8IP1 (11723275_at) / Fold change /veh LOC101060620 /// MAPK8IP1 (11723275_at) / RFU SPTSSB (11747773_x_at) / Fold change /veh SPTSSB (11747773_x_at) / RFU PRSS12 (11739890_at) / Fold change /veh PRSS12 (11739890_at) / RFU BIN1 (11741810_x_at) / Fold change /veh BIN1 (11741810_x_at) / RFU WNT11 (11732464_a_at) / Fold change /veh WNT11 (11732464_a_at) / RFU C10orf10 (11716521_a_at) / Fold change /veh C10orf10 (11716521_a_at) / RFU C5orf56 (11738089_at) / Fold change /veh C5orf56 (11738089_at) / RFU CYB561 (11721691_x_at) / Fold change /veh CYB561 (11721691_x_at) / RFU ANKRD19P (11752326_a_at) / Fold change /veh ANKRD19P (11752326_a_at) / RFU OR2T12 /// OR2T33 /// OR2T8 (11738714_s_at) / Fold change /veh OR2T12 /// OR2T33 /// OR2T8 (11738714_s_at) / RFU VCAN (11748164_a_at) / Fold change /veh VCAN (11748164_a_at) / RFU JSRP1 (11732532_at) / Fold change /veh JSRP1 (11732532_at) / RFU KRTAP10-11 (11738290_x_at) / Fold change /veh KRTAP10-11 (11738290_x_at) / RFU MYO3A (11730013_a_at) / Fold change /veh MYO3A (11730013_a_at) / RFU EBF3 (11725865_a_at) / Fold change /veh EBF3 (11725865_a_at) / RFU CAMK2N1 (11719241_x_at) / Fold change /veh CAMK2N1 (11719241_x_at) / RFU C5orf56 (11738088_a_at) / Fold change /veh C5orf56 (11738088_a_at) / RFU OLFML3 (11715873_a_at) / Fold change /veh OLFML3 (11715873_a_at) / RFU LOC100653217 /// NTM (11731650_a_at) / Fold change /veh LOC100653217 /// NTM (11731650_a_at) / RFU MAPK11 (11762145_a_at) / Fold change /veh MAPK11 (11762145_a_at) / RFU FIZ1 (11724087_x_at) / Fold change /veh FIZ1 (11724087_x_at) / RFU OASL (11726364_x_at) / Fold change /veh OASL (11726364_x_at) / RFU SOX15 (11748057_x_at) / Fold change /veh SOX15 (11748057_x_at) / RFU CD79A (11719716_a_at) / Fold change /veh CD79A (11719716_a_at) / RFU HIST1H1D (11736915_at) / Fold change /veh HIST1H1D (11736915_at) / RFU CASKIN2 (11723855_a_at) / Fold change /veh CASKIN2 (11723855_a_at) / RFU LOC730098 (11760151_x_at) / Fold change /veh LOC730098 (11760151_x_at) / RFU OR4N2 (11742367_at) / Fold change /veh OR4N2 (11742367_at) / RFU PRRT2 (11749266_a_at) / Fold change /veh PRRT2 (11749266_a_at) / RFU SNX32 (11753110_a_at) / Fold change /veh SNX32 (11753110_a_at) / RFU CDHR5 (11726645_a_at) / Fold change /veh CDHR5 (11726645_a_at) / RFU RCAN1 (11760418_a_at) / Fold change /veh RCAN1 (11760418_a_at) / RFU FAM167A (11723789_a_at) / Fold change /veh FAM167A (11723789_a_at) / RFU FAM26E (11764081_at) / Fold change /veh FAM26E (11764081_at) / RFU ISYNA1 (11749810_s_at) / Fold change /veh ISYNA1 (11749810_s_at) / RFU ACY1 (11761880_at) / Fold change /veh ACY1 (11761880_at) / RFU 11764098_at / Fold change /veh 11764098_at / RFU SAMD14 (11745864_x_at) / Fold change /veh SAMD14 (11745864_x_at) / RFU NPB (11741838_a_at) / Fold change /veh NPB (11741838_a_at) / RFU TMPRSS6 (11731388_a_at) / Fold change /veh TMPRSS6 (11731388_a_at) / RFU KRTAP10-2 (11738614_at) / Fold change /veh KRTAP10-2 (11738614_at) / RFU ARHGAP8 /// PRR5-ARHGAP8 (11727945_x_at) / Fold change /veh ARHGAP8 /// PRR5-ARHGAP8 (11727945_x_at) / RFU KRTAP5-7 /// NADSYN1 (11734609_at) / Fold change /veh KRTAP5-7 /// NADSYN1 (11734609_at) / RFU RASL12 (11751679_a_at) / Fold change /veh RASL12 (11751679_a_at) / RFU CDKN2B (11736163_a_at) / Fold change /veh CDKN2B (11736163_a_at) / RFU PRF1 (11729649_at) / Fold change /veh PRF1 (11729649_at) / RFU, ZNF638 /// ZNF638-IT1 / Fold change vs veh, ZNF638 /// ZNF638-IT1 / RFU, PANK3 / Fold change vs veh, PANK3 / RFU, SH3YL1 / Fold change vs veh, SH3YL1 / RFU, ZEB2 / Fold change vs veh, ZEB2 / RFU, NRIP1 / Fold change vs veh, NRIP1 / RFU, PTTG1IP / Fold change vs veh, PTTG1IP / RFU, CAPN2 / Fold change vs veh, CAPN2 / RFU, MED14 / Fold change vs veh, MED14 / RFU, SNORA58 / Fold change vs veh, SNORA58 / RFU, C1orf63 / Fold change vs veh, C1orf63 / RFU, LRRFIP1 / Fold change vs veh, LRRFIP1 / RFU, NDUFAF7 / Fold change vs veh, NDUFAF7 / RFU, SLC12A2 / Fold change vs veh, SLC12A2 / RFU, IBTK / Fold change vs veh, IBTK / RFU, ESF1 / Fold change vs veh, ESF1 / Fold change vs veh, TMEM50B / RFU, TAOK1 / Fold change vs veh, TAOK1 / RFU, ACBD3 / Fold change vs veh, ACBD3 / RFU, TMA16 / Fold change vs veh, TMA16 / RFU, RWDD3 / Fold change vs veh, RWDD3 / RFU, BCAT1 / Fold change vs veh, BCAT1 / RFU, EDEM3 / Fold change vs veh, EDEM3 / RFU, TMEM33 / Fold change vs veh, TMEM33 / RFU, WDR75 / Fold change vs veh, WDR75 / RFU, AHCTF1 / Fold change vs veh, AHCTF1 / RFU, TFRC / Fold change vs veh, TFRC / RFU, ZDHHC17 / Fold change vs veh, ZDHHC17 / RFU, NOM1 / Fold change vs veh, NOM1 / RFU, ARL8B / Fold change vs veh, ARL8B / RFU, ZBTB11 / Fold change vs veh, ZBTB11 / RFU, TAMM41 / Fold change vs veh, TAMM41 / RFU, KIAA1704 /// LOC100996395 / Fold change vs veh, KIAA1704 /// LOC100996395 / RFU, ING1 / Fold change vs veh, ING1 / RFU, TRMT61B / Fold change vs veh, TRMT61B / RFU, FUBP3 / Fold change vs veh, FUBP3 / RFU, TP53 / Fold change vs veh, TP53 / RFU, TNKS2 / Fold change vs veh, TNKS2 / RFU, ZFP14 / Fold change vs veh, ZFP14 / RFU, ACTR2 / Fold change vs veh, ACTR2 / RFU, PPP3R1 / Fold change vs veh, PPP3R1 / RFU, PIK3R1 / Fold change vs veh, PIK3R1 / RFU, HNRNPA1 / Fold change vs veh, HNRNPA1 / RFU, RNF170 / Fold change vs veh, RNF170 / RFU, ZNF28 / Fold change vs veh, ZNF28 / RFU, RNGTT / Fold change vs veh, RNGTT / RFU, OGT / Fold change vs veh, OGT / RFU, BRD1 / Fold change vs veh, BRD1 / RFU, MARS / Fold change vs veh, MARS / RFU, ZNF655 / Fold change vs veh, ZNF655 / RFU, FAHD1 / Fold change vs veh, FAHD1 / RFU, BDP1 / Fold change vs veh, BDP1 / RFU, LRRCC1 / Fold change vs veh, LRRCC1 / RFU, ARID1A / Fold change vs veh, ARID1A / RFU, ZNF146 / Fold change vs veh, ZNF146 / RFU, ZNF330 / Fold change vs veh, ZNF330 / RFU, GPN3 / Fold change vs veh, GPN3 / RFU, C9orf123 / Fold change vs veh, C9orf123 / RFU, N4BP2L2 / Fold change vs veh, N4BP2L2 / RFU, ARFIP1 / Fold change vs veh, ARFIP1 / RFU, FAM179B / Fold change vs veh, FAM179B / RFU, BCL10 / Fold change vs veh, BCL10 / RFU, UHRF1BP1L / Fold change vs veh, UHRF1BP1L / RFU, BET1 / Fold change vs veh, BET1 / RFU, CNOT2 / Fold change vs veh, CNOT2 / RFU, ZNF268 / Fold change vs veh, ZNF268 / Fold change vs veh, ZNF507 / RFU, DGCR2 / Fold change vs veh, DGCR2 / RFU, WDSUB1 / Fold change vs veh, WDSUB1 / Fold change vs veh, HSP90B1 /// MIR3652 / RFU, ADSS / Fold change vs veh, ADSS / RFU, GK / Fold change vs veh, GK / RFU, ZNF148 / Fold change vs veh, ZNF148 / RFU, TAF9 / Fold change vs veh, TAF9 / RFU, SLC1A5 / Fold change vs veh, SLC1A5 / RFU, SLMO2 / Fold change vs veh, SLMO2 / RFU, ABCC4 / Fold change vs veh, ABCC4 / RFU, LOC101060439 /// RAP1B / Fold change vs veh, LOC101060439 /// RAP1B / RFU, RFX7 / Fold change vs veh, RFX7 / RFU, GTPBP10 / Fold change vs veh, GTPBP10 / RFU, CNEP1R1 / Fold change vs veh, CNEP1R1 / RFU, BIVM-ERCC5 /// ERCC5 / Fold change vs veh, BIVM-ERCC5 /// ERCC5 / RFU, ILF3 / Fold change vs veh, ILF3 / RFU 11762660_at / Fold change /veh 11762660_at / RFU VCAN (11757783_s_at) / Fold change /veh VCAN (11757783_s_at) / RFU DDX43 (11728927_at) / Fold change /veh DDX43 (11728927_at) / RFU KRT8 (11758188_x_at) / Fold change /veh KRT8 (11758188_x_at) / RFU NKD1 (11759106_at) / Fold change /veh NKD1 (11759106_at) / RFU SRD5A1 (11742802_a_at) / Fold change /veh SRD5A1 (11742802_a_at) / RFU TPSAB1 /// TPSB2 (11721975_s_at) / Fold change /veh TPSAB1 /// TPSB2 (11721975_s_at) / RFU GSTM3 (11746129_a_at) / Fold change /veh GSTM3 (11746129_a_at) / RFU IL23R (11737362_x_at) / Fold change /veh IL23R (11737362_x_at) / RFU TMEM51 (11727254_a_at) / Fold change /veh TMEM51 (11727254_a_at) / RFU PIWIL2 (11732686_x_at) / Fold change /veh PIWIL2 (11732686_x_at) / RFU ORM1 (11744905_x_at) / Fold change /veh ORM1 (11744905_x_at) / RFU CCDC152 (11743942_at) / Fold change /veh CCDC152 (11743942_at) / RFU ECM1 (11717891_a_at) / Fold change /veh ECM1 (11717891_a_at) / RFU IL23R (11748794_a_at) / Fold change /veh IL23R (11748794_a_at) / RFU TNFAIP8L3 (11732012_x_at) / Fold change /veh TNFAIP8L3 (11732012_x_at) / RFU MBOAT4 (11741988_at) / Fold change /veh MBOAT4 (11741988_at) / RFU 11764193_at / Fold change /veh 11764193_at / RFU TMEM53 (11763286_at) / Fold change /veh TMEM53 (11763286_at) / RFU MAGEB2 (11727129_at) / Fold change /veh MAGEB2 (11727129_at) / RFU TMEM200A (11744735_a_at) / Fold change /veh TMEM200A (11744735_a_at) / RFU CCDC152 (11751479_a_at) / Fold change /veh CCDC152 (11751479_a_at) / RFU FAM211A (11726209_a_at) / Fold change /veh FAM211A (11726209_a_at) / RFU RGS16 (11746705_a_at) / Fold change /veh RGS16 (11746705_a_at) / RFU VCAN (11755009_s_at) / Fold change /veh VCAN (11755009_s_at) / RFU RHOB (11743442_s_at) / Fold change /veh RHOB (11743442_s_at) / RFU RGS16 (11720943_a_at) / Fold change /veh RGS16 (11720943_a_at) / RFU RGS16 (11720944_at) / Fold change /veh RGS16 (11720944_at) / RFU, VPS4B / Fold change vs veh, VPS4B / RFU, CREB1 / Fold change vs veh, CREB1 / RFU, DNAJC13 / Fold change vs veh, DNAJC13 / RFU, GNAQ / Fold change vs veh, GNAQ / RFU, CDK5R1 / Fold change vs veh, CDK5R1 / RFU, ZRANB3 / Fold change vs veh, ZRANB3 / RFU, CUL4A / Fold change vs veh, CUL4A / RFU, CCNY / Fold change vs veh, CCNY / RFU, UFL1 / Fold change vs veh, UFL1 / RFU, COG3 / Fold change vs veh, COG3 / RFU, DIAPH2 / Fold change vs veh, DIAPH2 / RFU, SKA2 / Fold change vs veh, SKA2 / RFU, AFF3 / Fold change vs veh, AFF3 / RFU, LMF1 / Fold change vs veh, LMF1 / RFU, IPO11 / Fold change vs veh, IPO11 / RFU, DFFB / Fold change vs veh, DFFB / RFU, FOXP1 / Fold change vs veh, FOXP1 / RFU, CARD8 / Fold change vs veh, CARD8 / RFU, STRN3 / Fold change vs veh, STRN3 / RFU, ADK / Fold change vs veh, ADK / RFU, RASSF2 / Fold change vs veh, RASSF2 / RFU, WIPF1 / Fold change vs veh, WIPF1 / RFU, LARP1B / Fold change vs veh, LARP1B / RFU, RASA1 / Fold change vs veh, RASA1 / RFU, RB1 / Fold change vs veh, RB1 / RFU, PPFIA1 / Fold change vs veh, PPFIA1 / RFU, MAT2A / Fold change vs veh, MAT2A / RFU, CCT5 / Fold change vs veh, CCT5 / RFU, WDR92 / Fold change vs veh, WDR92 / RFU, CUX1 / Fold change vs veh, CUX1 / RFU, TTC7A / Fold change vs veh, TTC7A / RFU, TMEM135 / Fold change vs veh, TMEM135 / RFU, DEPTOR / Fold change vs veh, DEPTOR / RFU, CPM / Fold change vs veh, CPM / RFU, DNAJB6 / Fold change vs veh, DNAJB6 / RFU, CACNA2D3 / Fold change vs veh, CACNA2D3 / RFU, DTX4 / Fold change vs veh, DTX4 / RFU, TFCP2 / Fold change vs veh, TFCP2 / RFU, GMCL1 /// GMCL1P1 / Fold change vs veh, GMCL1 /// GMCL1P1 / RFU, AEBP2 / Fold change vs veh, AEBP2 / RFU, SNHG1 /// SNORD22 /// SNORD25 /// SNORD26 /// SNORD27 /// SNORD28 /// SNORD29 /// SNORD31 / Fold change vs veh, SNHG1 /// SNORD22 /// SNORD25 /// SNORD26 /// SNORD27 /// SNORD28 /// SNORD29 /// SNORD31 / Fold change (Aza/veh), C12orf56 (ProbeSet 11735607_a_at) / Fold change (ACY-1035/veh), C12orf56 (ProbeSet 11735607_a_at) / Fold change (Aza/veh), FGFR1OP (ProbeSet 11751329_s_at) / Fold change (ACY-1035/veh), FGFR1OP (ProbeSet 11751329_s_at) / Fold change (Aza/veh), VPS36 (ProbeSet 11739960_a_at) / Fold change (ACY-1035/veh), VPS36 (ProbeSet 11739960_a_at) / RFU SYPL1 (11715823_x_at) / Fold change /veh SYPL1 (11715823_x_at) / RFU IGFBP7 (11715501_s_at) / Fold change /veh IGFBP7 (11715501_s_at) / RFU REEP3 (11722064_at) / Fold change /veh REEP3 (11722064_at) / RFU IGLL1 (11728026_x_at) / Fold change /veh IGLL1 (11728026_x_at): dose or concentration left out as unconfirmed
Details: MV-4-11 cells, 48 hours

Nc1ccc(-c2cccs2)cc1NC(=O)c1ccc2c(c1)cc(C1CC1)n2CCN1CCOCC1 [ACY-1035]
Fold change /veh IGLL1 (11728026_x_at): 0.28
